Here are results for five compounds from PMC12466456, “Isolation, Characterization, Antioxidant and Anticancer Activities of Compounds from Erythrina caffra Stem Bark Extract” (Antioxidants, 2025).

One test deals with HEK293 cells. Put plainly: MTT cytotoxicity assay, HEK293. It is filed as cell-based. The settings on record: Homo sapiens. The method, then:
(§1) Cytotoxicity was evaluated using the MTT (3-(4,5-dimethylthiazol-2-yl)-2,5-diphenyltetrazolium bromide) assay to measure cell viability after treatment with the plant extracts. This assay measures the percentage viability of a cell population by monitoring the ability of the NAD(P)H-dependent oxidoreductase enzyme system in live cells to reduce MTT to formazan, an insoluble purple form of the dye. […] The medium was replaced with fresh medium, and the extracts were added in varying concentrations (50–250 µg/mL). The plates were incubated at 37 °C in 5% CO2 for 48 h. At the end of the incubation period, the spent medium was discarded and replaced with 100 µL fresh medium containing 10 µL (5 mg/mL in PBS) MTT reagent. The cells were then incubated for an additional 4 h. The MTT/medium was subsequently removed, and 100 μL DMSO was added to solubilize the formazan dye product. Absorbance at 570 nm was assessed using a microplate reader (Vacutec, Hamburg, Germany). Cell viability was calculated as in Equation (2).(2) Cell viability (%)=At/Ac×100 where At = absorbance of test or treated cells and Ac = absorbance of control or untreated cells.
A general note: Formazan colour is commonly taken as a measure of viable cells.

The subject of test [1] is MCF-7 cells. Put plainly: MTT cytotoxicity assay, MCF-7. It is filed as cell-based, human. The settings on record: for IC50: Homo sapiens. On the procedure:
as §1

Test [2] relates to HeLa cells. Nature of the test: MTT cytotoxicity assay, HeLa. It is filed as cell-based, human. To be noted: for IC50: Homo sapiens, HeLa. The method, then: as §1
The test system of test [3] is MCF-7 cells. Nature of the test: AO/EB dual staining for apoptosis, MCF-7. It is filed as cell-based, human. The settings on record: 48 h; 250 µg/mL (method) or 100 µg/mL (Figure 3 legend).
Procedure: A qualitative assessment of apoptosis induction in cancer cells was conducted by the acridine orange-ethidium bromide (AO/EB) dual staining method, as described previously [13, 14]. Confluent cells (4.0 × 10^3 cells/well) were trypsinized and seeded into 48-well plates and incubated for 24 h at 37 °C in 5% CO2. Subsequently, the spent medium was replaced, and cells were incubated for a further 48 h with the extracts or standard drug (5-fluorouracil) at a concentration of 250 µg/mL. The cells were rinsed twice with cold PBS, and 15 µL of the AO/EB dye mixture (0.1 mg/mL: 0.1 mg/mL) was added, and the cells were incubated for 5 min at ambient temperature. The cells were washed with PBS to remove excess dye and then visualized under an Olympus fluorescence microscope (Wirsam Scientific and Precision Equipment Ltd., Johannesburg, South Africa). Images were captured using a CC12 fluorescence camera and Analysis Five Software (Olympus Soft Imaging Solutions, Olympus, Tokyo, Japan) at 200× magnification.
For test [4], the system named is HeLa cells. Put plainly: Muse MultiCaspase assay, HeLa. To be noted: 100 µg/mL, 48 h, Figure 5a. It is filed as cell-based, human. The method, then: (§2) The multicaspase assay was performed using the Muse MultiCaspase kit, which can detect the presence of multiple caspases (caspase-1, 3, 4, 5, 6, 7, 8, and 9). The kit utilizes a derivatized VAD peptide that can detect the activity of multiple caspases and a dead cell dye that provides information on membrane integrity or cell death. Cells were seeded into 48-well plates at a density of 1.0 × 10^5 cells/well and allowed to attach over 24 h. Subsequently, 100 µg/mL of the isolated fractions were added, and the cells were incubated for 48 h. The cells were then trypsinized and reconstituted in 1 × caspase buffer. Approximately 5 μL of the Muse™ MultiCaspase working solution was added to 50 μL of cell suspension and incubated at 37 °C for 30 min. Thereafter, 150 μL of 7-AAD working solution was added, mixed thoroughly, and analyzed using the Muse™ cell analyzer (Luminex Corporation, Austin, TX, USA).

Test [5] has as its system MCF-7 cells. Put plainly: Muse MultiCaspase assay, MCF-7. It is filed as cell-based, human. To be noted: 100 µg/mL, 48 h, Figure 5b. On the procedure: as §2
Test [6] can be described thus: DPPH radical scavenging assay. It is filed as biochemical. The settings on record: crude extracts/ascorbic acid 50-250 µg/mL, 30 min, 517 nm. The method, then: The antioxidant potential of the crude extracts was evaluated by measuring their DPPH radical scavenging activity following the protocol described by Bukhari et al.. […] A control well containing 5% dimethyl sulfoxide (DMSO) and DPPH was run concurrently. The samples were incubated in the dark for 30 min at room temperature. The absorbance was read against a DMSO blank at a wavelength of 517 nm using a microplate reader.
(In general: The DPPH test is a chemical assay of radical scavenging.)

Setting [7] is: HEK293, isolated compounds/fractions, read-out: IC50 HEK293 (isolated compounds).
Where [8] appears, read: MCF7, MTT, isolated compounds/fractions, read-out: IC50 MCF-7 (isolated compounds).
The mark [9] stands for this setting: MTT, isolated compounds/fractions.
Setting [10] is: isolated compounds/fractions, read-out: IC50 HeLa (isolated compounds).

Values after ≈ are worked out from the molar mass of the structure shown. Where two headings read alike, the source gives them in different places.

On to `O=c1[nH]cc(F)c(=O)[nH]1` [Compound 5-FU, 5-Fluorouracil, reference compound], for which the 50% inhibitory concentration (IC50) with HEK293 cells (48 h, HEK293 served as normal cells, read-out: IC50 HEK293 (crude extracts)) is 54.5 µg/mL (≈ 419 µM); with MCF-7 cells [1] (MCF7, 48 h, MTT, 48 h, read-out: IC50 MCF-7 (crude extracts)), 148 µg/mL (≈ 1140 µM); in the test on HeLa cells [2] (48 h, read-out: IC50 HeLa (crude extracts)), 510 µg/mL (≈ 3920 µM). Also, the “AO/EB fluorescence / apoptosis in MCF-7 cells” value in the test with MCF-7 cells [3] is given as “red fluorescence”.
In the case of `CCCCCCCCCCCCCCCCCCCCCCCCCCOC(=O)/C=C/c1ccc(OC)c(O)c1` [n-Hexacosanyl isoferulate], the concentration for half-maximal inhibition (IC50) in the test with HEK293 cells (setting [7]) came out at 316 µg/mL (≈ 566 µM); in the test on MCF-7 cells [1] (setting [8]) it was 58.8 µg/mL (≈ 105 µM); in the test on HeLa cells [2] (setting [10]), 147 µg/mL (≈ 262 µM). The “IC50 MCF-7 (isolated compounds)” value in the test with MCF-7 cells [1] (setting [9]) was determined as 58.84 µg/mL (≈ 105 µM); with MCF-7 cells [1] (MTT, isolated compounds/fractions, listed as n-hexacosanyl isoferulate), 58.8 µg/mL (≈ 105 µM). The “IC50 HeLa (isolated compounds)” value in the test with HeLa cells [2] (isolated compounds/fractions) was found to be 146.63 µg/mL (≈ 262 µM). Also, in the test on HeLa cells [4], the “caspase activation in HeLa cells” value is “pronounced caspase activation potential”. In addition, the “caspase activation in MCF-7 cells” value in the test with MCF-7 cells [5] was “pronounced caspase activation potential”.
Turning to `O=C1O[C@H]([C@@H](O)CO)C(O)=C1O` [Ascorbic acid, ascorbic acid], in test [6], the “IC50 DPPH radical scavenging” value is given as 84.37 µg/mL (≈ 479 µM).
Consider `CCCCCCCCCCCCCCOC(=O)/C=C/c1ccc(OC)c(O)c1` [Tetradecyl isoferulate, tetradecyl isoferulate], for which the half-maximal inhibitory concentration (IC50) with HEK293 cells (setting [7]) was determined as 141 µg/mL (≈ 360 µM); in the test on MCF-7 cells [1] (setting [8]) it was 124 µg/mL (≈ 317 µM); in the test with HeLa cells [2] (setting [10]) it was 170 µg/mL (≈ 435 µM). Also, the “IC50 MCF-7 (isolated compounds)” value in the test on MCF-7 cells [1] (setting [9]) worked out at 123.6174 µg/mL (≈ 317 µM). Also, the “caspase activation in HeLa cells” value in the test on HeLa cells [4] is on record as “pronounced caspase activation potential”. The “caspase activation in MCF-7 cells” value with MCF-7 cells [5] is reported as “pronounced caspase activation potential”.
Consider `CCCCCCCCCCCCCCCCCCCCCO` [1-Heneicosanol, 1-heneicosanol], for which the IC50 in the test with HEK293 cells (setting [7]) was 372 µg/mL (≈ 1190 µM); with MCF-7 cells [1] (setting [8]), 1980 µg/mL (≈ 6330 µM); in the test with HeLa cells [2] (setting [10]), 4010 µg/mL (≈ 12800 µM).

What is called IC50 is the concentration that inhibits the measured activity by half.
